Activity calls are given as the source filed them. How the calls were made is not given here.
Each molecule was assayed against UPR counterscreen luciferase reporter, luminescence (assay: activators in UPR counterscreen luciferase reporter, dose response, counter-screen for adaptive UPR activator project, cell-based, luminescence (AID 489027)).
In the case of `CCc1ccc2[nH]c3nc(SCC(=O)NNC(=O)c4ccc(C(C)(C)C)cc4)nnc3c2c1`, the EC50 is reported as “inactive”.
In the case of `Cc1ccc(C(=O)Nc2cc(S(=O)(=O)N3CCOCC3)ccc2N2CCCC2)cc1`, the EC50 is reported as “inactive”.
`Oc1cccc(-c2nc3c4c(ncn3n2)-c2ccccc2CC42CCCC2)c1` was tested, and the EC50 was 18.6 µM.
In the case of `O=c1[nH]c(CSc2ncnc3sc(-c4ccccc4)cc23)nc2ccccc12`, the EC50 is reported as > 80 µM (inactive).
In the case of `CCCCOc1ccccc1NC(=O)Cn1c(-c2nonc2N)nc2ccccc21`, the EC50 is reported as “inactive”.
`COc1ccc(N=Cc2c(O)c3ccccc3oc2=O)cc1` showed an EC50 of 10.3 µM.
For `CC1=CC(C)[C@H](/C=N/n2c(=O)[nH]c3c([nH]c4ccc(C)cc43)c2=O)C(C)C1` (some centres undefined), the EC50 was “inactive”.
`NC(=S)N/N=C/c1ccc(C23CC4CC(CC(C4)C2)C3)cc1` gave an EC50 of 13.8 µM.
With `CCOc1cc(/C=N/NC(N)=S)cc(Br)c1OCc1ccccc1C` the EC50 was 12.5 µM.
With `COc1cc(C(=O)Nc2cc(-c3nc4cc(C)ccc4o3)ccc2C)cc(OC)c1OC` the EC50 was “inactive”.
`FC(F)(F)c1nc2ccccc2n2c(-c3ccc(Cl)cc3)nnc12` gave an EC50 of 13.6 µM.
For `Cc1ccc(Cc2cnc(NC(=O)/C(C#N)=C/c3ccc(-c4cccc([N+](=O)[O-])c4)o3)s2)cc1`, the EC50 was 12 µM.
Work on `Cc1ccc(C(=O)Cn2c(C(=O)/C=C/c3ccccc3)nc3ccccc32)cc1` yielded an EC50 of 10.9 µM.
In the case of `Cc1ccc(-n2nc3cc(C)c(NC(=S)NC(=O)/C=C/c4ccco4)cc3n2)cc1`, the EC50 is reported as 11.6 µM.
For `Brc1ccc2c(c1)C(c1ccc(N3CCOCC3)cc1)=NNC(c1cccs1)=N2`, the EC50 was “inactive”.
For `OCCCn1c(C2CCCN2c2nc(-c3ccc(Cl)cc3)cs2)nc2cc(Cl)c(N3CCCCC3)cc21` (centres undefined), the EC50 was “inactive”.
With `NS(=O)(=O)c1ccc(N/N=C/c2cn(-c3ccccc3)nc2-c2cccs2)c([N+](=O)[O-])c1` the EC50 was > 80 µM (inactive).
In the case of `COc1ccc2nc(C)cc(SCC(=O)N/N=C/c3cccc4ccccc34)c2c1`, the EC50 is reported as “inactive”.
Work on `Cc1cc(C)cc(NC(=O)/C(C#N)=C/c2cn(CC(=O)NCc3ccco3)c3ccccc23)c1` yielded an EC50 of 7.27 µM.
`CCn1c(/C=C/c2c(C)[nH]c3ccccc23)nc2ccccc2c1=O` was tested, and the EC50 was > 80 µM (inactive).
For `COc1cc(NC(=O)c2ccco2)c(C(=O)OCC(=O)c2c[nH]c3ccccc23)cc1OC`, the EC50 was > 80 µM (inactive).
Molecule `Cc1ccc(S(=O)(=O)N(CC(=O)N/N=C/c2ccc(F)cc2)c2cccc3cccnc23)cc1` has an EC50 of 1.92 µM.
`CCc1ccccc1NC(=O)C(CC)Sc1nc2cc3c(cc2c(=O)n1Cc1ccco1)OCO3` (centres undefined) gave an EC50 of 11.6 µM.
With `C=CCOc1ccc(/C=N/N2C(=O)C(CC(=O)Nc3ccc(F)cc3F)SC2=NC)cc1` (centres undefined) the EC50 was > 80 µM (inactive).
`COc1ccc(-c2coc3cc4oc(=O)cc(-c5ccccc5)c4cc23)cc1F` was tested, and the EC50 was “inactive”.
In the case of `CCOC(=O)/C(=N\Nc1ccc(C(C)=O)cc1)c1csc(Nc2ccccc2)n1`, the EC50 is reported as “inactive”.
`CCn1cc(C(=O)NC(=S)Nc2sc3c(c2C(=O)OC)CCCCCC3)cn1` was tested, and the EC50 was “inactive”.
Work on `COc1ccc(C2c3ccc4ccccc4c3Oc3ncn(CCCN(C)C)c(=N)c32)cc1` (centres undefined) yielded an EC50 of 8.25 µM.
In the case of `Cc1c(O)cc2c(c1O)C(=O)CC(c1ccccc1)O2` (centres undefined), the EC50 is reported as 10.9 µM.
With `CCCCN(CC)S(=O)(=O)c1ccc(C(=O)N=c2sc3cc(NC(C)=O)ccc3n2C)cc1` the EC50 was 5.23 µM.
`CC1=CC(C)(C)N2C(=O)C(=O)c3cc(OC(=O)c4ccco4)cc1c32` was tested, and the EC50 was “inactive”.
Work on `CCOC(=O)c1nnc(-c2ccccc2)nc1Sc1c(Cl)cccc1Cl` yielded an EC50 of 12.9 µM.
For `CCCCN1C(=O)/C(=C2/Sc3ccc(OC)cc3N2CC)SC1=S`, the EC50 was “inactive”.
For `Cc1ccc(NC(=O)c2cc(S(=O)(=O)N(C)C)ccc2N2CCCC2)cc1F`, the EC50 was “inactive”.
Work on `O=C(/C=C/c1ccccc1)c1ccccc1O` yielded an EC50 of 13.2 µM.
In the case of `O=C(Nc1ccc(Cl)cc1)Nc1ccccc1Sc1ncc([N+](=O)[O-])s1`, the EC50 is reported as “inactive”.
`CCN(CC)c1ccc(/C=C/[N+](=O)[O-])cc1` showed an EC50 of 11.3 µM.
For `CCc1ccc(-c2cc(C(F)(F)F)n3nc(C(=O)Nc4cnn(Cc5ccc(C)cc5)c4)cc3n2)s1`, the EC50 was 3.35 µM.
For `COc1ccc(OC)c(Nc2nc(NCc3ccco3)nc(N)c2[N+](=O)[O-])c1`, the EC50 was “inactive”.

— PubChem BioAssay AID489027 (Sanford-Burnham Center for Chemical Genomics, 2010)
